From patent publication US10925286B2, “Synergistic chalcone containing composition of a nematicide” (TELLURIS BIOTECH INDIA PRIVATE LIMITED, priority 2017, dated 2021)

Experiments:
M. incognita eggs = experiment: Egg hatching experiment, 96-well plate, 10 eggs per well, 16 days; format: in vivo, Meloidogyne incognita
Text: (§1) Tomato plants were inoculated with M. incognita juveniles and maintained in a growth chamber. After at least two months, the M. incognita eggs were extracted from the roots for experiments. The procedure followed for extracting M. incognita eggs is explained below.
(§2) The root tissues were either chopped by hand using a surgical blade and a watch glass, or it was chopped up using a food processor. The chopped tissue was then placed in a bottle and washed with a 10% dilution of bleach. Under sterile conditions, the root solution was then poured through sieves (60 count sieve on top, 500 count sieve on the bottom). The crude egg collection was collected from the bottom of the 500 count sieve into 5 mL each of bleach and egg mixture in 15 mL Falcon tubes. 5 mL of 70% sucrose solution was then placed in each Falcon tube. A 1 mL layer of double distilled sterile water was then gently placed on top of the sucrose mixtures in each Falcon tube. The samples were then centrifuged for 5 minutes at 1200 rpm. The embryos that were suspended between the sucrose solution and the 1 mL water layer were collected in a total of 3 mL (top layer of 3 mL of the solution) from each Falcon tube into fresh 15 mL Falcon tubes. 10 mL of a 5% bleach solution was added and the eggs were vortexed for 10 minutes. The Falcon tubes were then centrifuged for 5 minutes at 2000 rpm. The supernatant was then removed, and the eggs were rinsed in 10 mL of sterile double distilled water and re-centrifuged for 5 minutes at 2000 rpm. This process was repeated two more times. After the last wash, 5 mL of supernatant was removed, while the remaining 5 mL of water was mixed with the eggs and placed into a 5 mL Petri dish. The eggs were then placed in an incubator at 25-27° C., and juvenile worms (J2 stage) hatched after about 10 days. The worms were kept in a 25-27° C. incubator for storage.
The bioassay is designed to test the ability of the mixture of peptides and chalcone to prevent egg hatching (% unhatched eggs). Each test was performed in a 96-well plate with 10 eggs per well. The eggs were incubated in each treatment for 16 days. Hatched vs unhatched eggs were determined by microscopic images.
(§3) As described earlier, equal number nematodes were incubated in various treatment solutions in a 96-well plate for 5 days and the potency of different combination of nematicides was tested by counting the number of nematodes dead or surviving on Day 5. Similarly, the effect of different combination of nematicide composition on hatching of nematode eggs was also counted.

nematodes = conditions: cited from earlier work; for effective concentration for nematicidal activity: peptide alone; for nematicidal activity: peptide individually, 1 mg/ml
J2 M. incognita = experiment: Bioassay for killing J2 juvenile nematodes (% mortality), 96-well plate, 5 days; format: in vivo, Meloidogyne incognita; conditions: for effectiveness in killing juvenile nematodes: peptide alone (0.8 mg/ml where stated), Day 5
Text: as §1
as §2, with “The eggs were then placed in an incubator at 25-27° C., and juvenile worms (J2 stage) hatched after about 10 days. The worms were kept in a 25-27° C. incubator for storage.” left out
as §3

Row | Molecule | hatched eggs by Day 16 (M. incognita eggs; chalcone alone, 10^−4-10^−5 M) | effective concentration for nematicidal activity (nematodes) | nematicidal activity (nematodes) | death of juvenile nematodes on Day 5 (J2 M. incognita; peptide alone, 0.8 mg/ml) | hatched eggs by Day 16 (M. incognita eggs; peptide alone, 0.8 mg/ml) | effectiveness in killing juvenile nematodes (J2 M. incognita)
1 | O=C(/C=C/c1ccccc1)c1ccc(Cl)cc1Cl [chalcone 17, (2E)-1-(2,4-Dichlorophenyl)-3-phenyl-2-propen-1-one] | ~50% |  |  |  |  | 
2 | CCOc1ccc(C(=O)/C=C/c2ccccc2)cc1 [chalcone 25, (2E)-1-(4-Ethoxyphenyl)-3-phenyl-2-propen-1-one] | ~50% |  |  |  |  | 
3 | Peptide 2: 15 amino acids DLLRPVVIAPQFSRQ (99-113 amino acid stretch of CED-4 protein, SEQ ID NO. 2) (Caenorhabditis elegans) |  | about 1 mg/ml | 100% | 60-80% | around 30% | 
4 | Peptide 3: 19 amino acids RQMLDRKLLLGNVPKQMTC (112-130 amino acid stretch of CED-4 protein, SEQ ID NO. 3) (Caenorhabditis elegans) |  | about 1 mg/ml | 100% |  | around 10% | less effective
5 | Peptide 12: 12 amino acids FPKFMQLHQKFY (529-540 amino acid stretch of CED-4 protein, SEQ ID NO. 4) (Caenorhabditis elegans) |  | about 1 mg/ml | 100% |  | around 20% | highly effective
